Data taken from the NIST ThermoML archive (doi:10.1021/je049551l).
Numbers after ± are expanded uncertainties.

Conditions: Crystal; DTA

In order of falling Normal melting temperature:
1. O=c1[nH]cc(F)c(=O)[nH]1 [5-fluoro-2,4(1H,3H)-pyrimidinedione]  284.00 ± 4 °C
2. NC(=O)/N=N/C(N)=O [azodicarbonamide]  224.50 ± 1.1 °C
3. CC(=O)O[C@H]1C(=O)[C@@]2(C)[C@H]([C@H](OC(=O)c3ccccc3)[C@]3(O)C[C@H](OC(=O)[C@H](O)[C@@H](NC(=O)c4ccccc4)c4ccccc4)C(C)=C1C3(C)C)[C@]1(OC(C)=O)CO[C@@H]1C[C@@H]2O [paclitaxel]  215.00 ± 4 °C
4. Cc1cn([C@H]2C[C@H](O)[C@@H](CO)O2)c(=O)[nH]c1=O [thymidine]  187.00 ± 2 °C
5. CC(=O)Nc1ccc(O)cc1 [N-acetyl-p-aminophenol]  170.00 ± 4 °C
6. COc1ccc2cc([C@H](C)C(=O)O)ccc2c1 [(S)-(+)-naproxen]  157.50 ± 1.1 °C
7. O=c1oc(-c2ccccc2)nc2ccccc12 [2-phenyl-4H-3,1-benzoxazin-4-one]  124.00 ± 2 °C
8. CC(C)Cc1ccc(C(C)C(=O)O)cc1 (stereo not drawn) [ibuprofen]  74.50 ± 3 °C
